Consider six compounds from patent US12358859B2, “Series of compounds for treatment of skin diseases and other conditions” (Unigen, Inc., priority 2018, dated 2025).

Structures are written as SMILES.

For one series, the target named is T1, COX-1 (Ovis aries, UniProt P05979).
T1 construct: purchased Cayman Chemical 701050
T1 sequence (P05979 25-600): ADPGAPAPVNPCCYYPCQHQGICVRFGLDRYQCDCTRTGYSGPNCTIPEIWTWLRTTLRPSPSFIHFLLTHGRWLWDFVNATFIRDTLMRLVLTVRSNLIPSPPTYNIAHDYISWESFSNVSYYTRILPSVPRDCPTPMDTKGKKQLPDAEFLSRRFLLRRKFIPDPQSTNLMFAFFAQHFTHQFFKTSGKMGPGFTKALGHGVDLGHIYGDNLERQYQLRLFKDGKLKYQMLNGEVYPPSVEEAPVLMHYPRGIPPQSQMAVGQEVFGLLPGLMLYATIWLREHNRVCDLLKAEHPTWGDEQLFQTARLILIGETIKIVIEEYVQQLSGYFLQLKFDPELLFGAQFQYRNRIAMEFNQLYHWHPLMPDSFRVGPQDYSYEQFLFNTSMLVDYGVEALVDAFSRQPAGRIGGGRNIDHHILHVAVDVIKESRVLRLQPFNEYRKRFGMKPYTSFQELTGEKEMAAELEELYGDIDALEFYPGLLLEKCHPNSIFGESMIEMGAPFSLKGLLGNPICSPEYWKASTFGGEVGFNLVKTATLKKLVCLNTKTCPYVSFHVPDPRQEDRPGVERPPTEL
Kind of series: COX-1 enzymatic inhibition assay. It is filed as biochemical. The settings on record: for IC50: read-out: Anti-inflammatory (IC50) COX-1. As to the method:
In order to screen for compounds that inhibited COX-1 and Cox-2 activity, enzymatic inhibition assay kits were purchased from Cayman Chemical (cat #701050). Briefly, the compound being examined was treated against a fixed amount of COX-1 and COX-2 enzymes. A cleavable, peroxide chromophore was included in the assay to visualize the peroxidase activity of each enzyme in presence of arachidonic acid as […]. Typically, assays were performed in 96-well format. Each inhibitor, taken from a 1 M stock solution in 100% DMSO, was tested in duplicate at room temperature using the following range of concentrations: 1.9, 3.9, 7.8, 15.6, 31.2, 62.5, 125, 250, 500, and 1000 μM. To each well, 150 μL of Assay Buffer was added along with 10 μL of Hemin, 10 μL of inhibitor diluted in DMSO and 10 μL of either COX-1 or COX-2 enzyme. The compounds were incubated for 5 minutes at room temperature, followed by the addition of 20 μL of Colormietric Substrate solution and 20 μL of arachidonic acid solution to initiate the reaction. The plate was mixed and incubated for 2 minutes before reading the absorbance at 590 nm. The inhibitor concentration vs. % of inhibition was plotted and the IC50 determined.

Series [1] addresses 5-lipoxygenase from potato. Kind of series: Lipoxygenase Inhibition Assay. It counts as biochemical. The settings on record: read-out: Anti-inflammatory (IC50) 5-LOX. As to the method: One of the most important pathway involved in the inflammatory response is produced by non-heme, ion-containing lipoxygenases (5-LOX, 12-LOX and 15-LOX) which catalyze the oxidation of fatty acids such as AA to produce the hydoperoxides 5-, 12- and 15-HEPTE, which are then converted to leukotrienes. A Lipoxygenase Inhibition Assay was carried out using commercial kit from Cayman Chemical (cat #760700, 5-lipoxygenase from potato, cat #60400). The test article and positive control were dissolved in 1% DMSO. 90 μL of diluted potato lipoxygenase enzyme and 10 μL inhibitor were added to a flat-bottom clear 96-well microplate. The plate was pre-incubated for five minutes at room temperature. The reaction was initiated by the addition of 10 μL linoleic acid substrate. The plate was then placed on a shaker for 10 minutes at room temperature. 100 μL Chromogen solution was added to each well and the plate was shaken again for five minutes. The absorbance was read at 492 nm using a TECAN Genios plate reader. The inhibitor concentration vs. % of inhibition was plotted and the IC50 determined.

The subject of series [2] is murine melanoma cells B16-F1. Description: Cell viability, tetrazolium reduction assay. It is filed as cell-based. As to the method: All test compounds were initially dissolved in 100% DMSO at a concentration of 400 mM. Then, 6 μL of 400 mM test compounds were added to 1.2 mL of the cell growth media giving a final concentration of 2 mM for the test compound and concentration of 0.5% for DMSO. The compounds were centrifuged for 1 h at 20,000×g. Supernatants (1 mL) were collected and filtered through sterile 0.2 μm filters. The compounds were serially diluted in two-fold increments in the sterile cell growth media supplemented with 0.5% DMSO, thus keeping the concentration of DMSO constant for all samples. These serially diluted compounds were subsequently used as two-fold concentrated stock solutions in the melanin production and cell viability assays. Equal volumes of 2× compounds were mixed with media containing 2 nM α-MSH to give a final concentration of 1 nM α-MSH, 0.5% DMSO, and 1× concentration of test compounds.
Viability of cells was measured using standard tetrazolium reduction assay based on redox potential of live cells. Cells were seeded in a clear-bottom 96-well plate in RPMI 1640 media with Glutamax (Fisher Scientific, cat #61870036) at a density of 5,000 cells/well. Cells were treated with test compounds dissolved in 100 μL RPMI 1640 media and incubated for 48 hours at 37° C. in a humidified atmosphere of 95% air and 5% CO2.
After incubation, 20 μL of Aqueous One Solution were added to each well and the plate was returned to the incubator for 30 minutes. Conversion of tetrazolium was monitored by measuring absorbance of cell wells at 492 nm using a TECAN Genios plate reader.
More than 90% percent of the melanin produced by cultured melanoma cells is found in extra-cellular media. Therefore, at the end of the experiment melanin-containing media was collected and relative amounts of melanin were determined by absorption at 492 nm. Viability of cells was determined by a commonly used colorimetric procedure that is based on conversion of the tetrazolium compounds to colored formazan products (using Promega's CellTiter96 AqueousOne assay). Dehydrogenase enzymes in metabolically active cells accomplish this conversion, and the amount of formazan product is directly proportional to the number of living cells in culture. Mean (n=2) absorption of wells containing no cells was subtracted as blanks. The results were computed as percent of wells that contained the cells but no test compounds.

A short description of series [3]: ORAC 5.0 antioxidant capacity. To be noted: Trolox reference standard. An excerpt: Table 5 lists representative novel 1,6-dienes analogs of Formula I-III which are useful as anti-oxidant. ORAC 5.0 consists of five types of ORAC assays that evaluate the antioxidant capacity of material against five primary reactive oxygen species (ROSs, commonly called “oxygen radicals”) found in humans: peroxyl radical, hydroxyl radical, superoxide anion, singlet oxygen, and […]. Trolox is used as reference standard, and the results are expressed as μ mole Trolex equivalency per gram (or milliliter) of a tested material.

As usually defined, the IC50 is the point on the concentration scale where inhibition reaches its midpoint. On to `CC(C)=CCCC(C)/C=C/c1ccc(O)cc1` (centres unmarked) [Compound 5, (E)-4-(3,7-dimethylocta-1,6-dienyl)phenol], for which the “Anti-inflammatory (IC50) COX-1” value at COX-1 is on record as “No Inhibition”. Besides, the IC50 in series [1] was found to be 50 µM. Further, the “CELL VIABILITY” value in series [2] (mouse, 48 h) came out at 50 µM. Moreover, in series [3], the ORAC came to 37643 μ mole TE/gram.
Turning to `CC(C)=CCCC(C)/C=C/c1cc(O)cc(O)c1` (centres unmarked) [Compound 7, (E)-5-(3,7-dimethylocta-1,6-dienyl) benzene-1,3-diol], the results for the IC50 (on COX-1; in series [1]) were 25 µM and 143 µM, respectively. In series [2] (48 hours, Tables 1-3), the “CELL VIABILITY” value was found to be 152 µM. Further, the “LD50, cell viability” value in series [2] (mouse, 48 h) was 152 µM. The ORAC in series [3] turned out to be 18196 μ mole TE/gram.
On to `CC(C)=CCCC(C)/C=C/c1ccc(O)cc1O` (centres unmarked) [Compound 6, (E)-4-(3,7-dimethylocta-1,6-dienyl) benzene-1,3-diol], for which the results for the IC50 (at COX-1; in series [1]) were 74 µM and 307 µM, respectively. For the same compound, the “CELL VIABILITY” value in series [2] (48 hours, Tables 1-3) was 233 µM. For the same compound, the “LD50, cell viability” value in series [2] (mouse, 48 h) was 233 µM. Also, the ORAC in series [3] was determined as 45869 μ mole TE/gram.
As to `CC(C)=CCC/C(C)=C/c1cc(O)cc(O)c1` [Compound 4, (E/Z)-5-(2,6-dimethylhepta-1,5-dienyl)benzene-1,3-diol], the IC50 was determined as 64 µM on COX-1 and 317 µM in series [1]. Moreover, the “CELL VIABILITY” value in series [2] (mouse, 48 h) is 127 µM. In addition, the ORAC in series [3] was 22580 μ mole TE/gram.
For the compound `CC(C)=CCCC(C)=Cc1ccc(O)cc1` (mixture of isomers) [Compound 1, (E/Z)-4-(2,6-dimethylhepta-1,5-dienyl)phenol], the figures for the IC50 (on COX-1; in series [1]) were 122 µM and 90 µM, respectively. In series [2] (48 hours, Tables 1-3), the “CELL VIABILITY” value came out at 269 µM. Besides, the “LD50, cell viability” value in series [2] (mouse, 48 h) was found to be 269 µM.
As for `CC(C)=CCCC(C)C/C=C\c1cc(O)cc(O)c1` (centres unmarked) [Compound 15, (Z)-5-(4,8-dimethylnona-1,7-dienyl) benzene-1,3-diol], the IC50 at COX-1 is 122 µM; in series [1] it was 90 µM. Further, the “CELL VIABILITY” value in series [2] (mouse, 48 h) was 269 µM. Further, in series [3], the ORAC turned out to be 11951 μ mole TE/gram.
